Experimental data as given in publication doi:10.1101/2021.04.08.439011v1 (biorxiv, 2021).

Tests used:
Settings in all cases: 1 µM; binder
ACVRL1 = ACVRL1 (Homo sapiens, UniProt P37023)
CDKL2 = CDKL2 (Homo sapiens, UniProt Q92772)
CLK3 = CLK3 (Homo sapiens, UniProt P49761)
EGFR(E746-A750del) = EGFR(E746-A750del) (Homo sapiens, UniProt P00533, DEL746-750)
EPHA1 = EPHA1 (Homo sapiens, UniProt P21709)
ERBB2 = ERBB2 (Homo sapiens, UniProt P04626)
FGR = FGR (Homo sapiens, UniProt P09769)
FLT3(D835V) = FLT3(D835V) (Homo sapiens, UniProt P36888, D835V)
FLT3-autoinhibited = FLT3-autoinhibited (Homo sapiens, UniProt P36888)
HIPK4 = HIPK4 (Homo sapiens, UniProt Q8NE63)
Sequence of HIPK4 (Q8NE63 whole entry): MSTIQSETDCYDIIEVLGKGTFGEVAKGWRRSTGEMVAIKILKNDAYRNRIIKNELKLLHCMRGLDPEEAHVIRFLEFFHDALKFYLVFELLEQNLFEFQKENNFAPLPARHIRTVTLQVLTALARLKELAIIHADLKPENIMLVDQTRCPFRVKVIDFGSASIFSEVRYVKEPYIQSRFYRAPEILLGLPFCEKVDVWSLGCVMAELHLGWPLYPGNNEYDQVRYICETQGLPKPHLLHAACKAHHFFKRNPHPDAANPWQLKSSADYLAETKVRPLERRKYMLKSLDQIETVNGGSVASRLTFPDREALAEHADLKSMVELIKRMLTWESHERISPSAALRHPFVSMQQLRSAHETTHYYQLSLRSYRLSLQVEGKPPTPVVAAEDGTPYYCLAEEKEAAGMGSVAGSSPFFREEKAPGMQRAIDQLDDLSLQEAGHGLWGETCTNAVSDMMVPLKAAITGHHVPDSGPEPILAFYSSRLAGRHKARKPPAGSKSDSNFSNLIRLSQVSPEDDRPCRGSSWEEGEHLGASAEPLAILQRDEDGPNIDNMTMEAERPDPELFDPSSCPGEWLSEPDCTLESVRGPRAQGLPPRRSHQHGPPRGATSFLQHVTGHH

JNK2 = JNK2 (Homo sapiens, UniProt P45984)
KIT(D816H) = KIT(D816H) (Homo sapiens, UniProt P10721, D816H)
Sequence of KIT(D816H) (P10721 whole entry D816H): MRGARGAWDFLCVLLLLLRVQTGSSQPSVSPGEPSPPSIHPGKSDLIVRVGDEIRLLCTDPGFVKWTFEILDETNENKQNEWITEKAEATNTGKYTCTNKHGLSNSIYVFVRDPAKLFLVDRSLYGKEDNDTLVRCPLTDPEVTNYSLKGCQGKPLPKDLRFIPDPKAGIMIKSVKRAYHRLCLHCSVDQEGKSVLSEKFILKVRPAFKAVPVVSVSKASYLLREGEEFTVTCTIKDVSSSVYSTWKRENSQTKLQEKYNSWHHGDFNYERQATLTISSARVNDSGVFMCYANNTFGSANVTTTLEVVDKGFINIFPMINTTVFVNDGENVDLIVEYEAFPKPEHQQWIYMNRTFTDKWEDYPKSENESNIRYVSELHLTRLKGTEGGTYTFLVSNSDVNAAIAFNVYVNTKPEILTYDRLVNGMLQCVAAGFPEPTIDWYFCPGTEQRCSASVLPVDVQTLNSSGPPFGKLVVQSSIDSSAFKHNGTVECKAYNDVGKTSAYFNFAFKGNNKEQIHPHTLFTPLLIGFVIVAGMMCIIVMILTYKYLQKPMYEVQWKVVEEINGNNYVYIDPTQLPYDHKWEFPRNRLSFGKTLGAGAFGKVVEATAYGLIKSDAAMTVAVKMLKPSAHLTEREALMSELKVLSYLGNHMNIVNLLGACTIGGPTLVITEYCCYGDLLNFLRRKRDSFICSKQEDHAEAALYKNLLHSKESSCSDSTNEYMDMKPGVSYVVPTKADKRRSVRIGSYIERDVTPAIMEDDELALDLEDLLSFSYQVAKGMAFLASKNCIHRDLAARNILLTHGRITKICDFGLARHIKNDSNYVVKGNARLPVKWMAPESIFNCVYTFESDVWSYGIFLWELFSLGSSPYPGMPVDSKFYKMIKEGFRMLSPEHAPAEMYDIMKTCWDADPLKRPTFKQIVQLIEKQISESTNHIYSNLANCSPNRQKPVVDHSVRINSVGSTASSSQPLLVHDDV

LATS1 = LATS1 (Homo sapiens, UniProt O95835)
LIMK1 = LIMK1 (Homo sapiens, UniProt P53667)
Sequence of LIMK1 (P53667 whole entry): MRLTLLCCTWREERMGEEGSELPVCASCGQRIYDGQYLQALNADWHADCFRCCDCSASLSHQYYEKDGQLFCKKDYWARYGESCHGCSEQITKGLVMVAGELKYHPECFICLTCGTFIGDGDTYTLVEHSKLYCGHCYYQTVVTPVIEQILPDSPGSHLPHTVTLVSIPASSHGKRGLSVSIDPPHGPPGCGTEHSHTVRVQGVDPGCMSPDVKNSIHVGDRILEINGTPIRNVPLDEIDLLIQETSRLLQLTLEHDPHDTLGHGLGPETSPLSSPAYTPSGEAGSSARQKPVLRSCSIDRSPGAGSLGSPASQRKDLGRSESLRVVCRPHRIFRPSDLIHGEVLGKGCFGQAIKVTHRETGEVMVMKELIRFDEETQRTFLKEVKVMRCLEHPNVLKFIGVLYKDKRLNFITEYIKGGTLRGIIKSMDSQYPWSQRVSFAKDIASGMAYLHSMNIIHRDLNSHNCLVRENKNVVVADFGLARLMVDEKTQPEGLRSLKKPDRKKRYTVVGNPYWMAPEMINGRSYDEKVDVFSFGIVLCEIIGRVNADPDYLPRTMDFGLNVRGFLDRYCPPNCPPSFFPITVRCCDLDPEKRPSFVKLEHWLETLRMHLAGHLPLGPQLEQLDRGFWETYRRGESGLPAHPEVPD

MAP3K3 = MAP3K3 (Homo sapiens, UniProt Q99759)
MAST1 = MAST1 (Homo sapiens, UniProt Q9Y2H9)
MKK7 = MKK7 (Homo sapiens, UniProt O14733)
MKNK2 = MKNK2 (Homo sapiens, UniProt Q9HBH9)
MLK3 = MLK3 (Homo sapiens, UniProt Q16584)
Sequence of MLK3 (Q16584 whole entry): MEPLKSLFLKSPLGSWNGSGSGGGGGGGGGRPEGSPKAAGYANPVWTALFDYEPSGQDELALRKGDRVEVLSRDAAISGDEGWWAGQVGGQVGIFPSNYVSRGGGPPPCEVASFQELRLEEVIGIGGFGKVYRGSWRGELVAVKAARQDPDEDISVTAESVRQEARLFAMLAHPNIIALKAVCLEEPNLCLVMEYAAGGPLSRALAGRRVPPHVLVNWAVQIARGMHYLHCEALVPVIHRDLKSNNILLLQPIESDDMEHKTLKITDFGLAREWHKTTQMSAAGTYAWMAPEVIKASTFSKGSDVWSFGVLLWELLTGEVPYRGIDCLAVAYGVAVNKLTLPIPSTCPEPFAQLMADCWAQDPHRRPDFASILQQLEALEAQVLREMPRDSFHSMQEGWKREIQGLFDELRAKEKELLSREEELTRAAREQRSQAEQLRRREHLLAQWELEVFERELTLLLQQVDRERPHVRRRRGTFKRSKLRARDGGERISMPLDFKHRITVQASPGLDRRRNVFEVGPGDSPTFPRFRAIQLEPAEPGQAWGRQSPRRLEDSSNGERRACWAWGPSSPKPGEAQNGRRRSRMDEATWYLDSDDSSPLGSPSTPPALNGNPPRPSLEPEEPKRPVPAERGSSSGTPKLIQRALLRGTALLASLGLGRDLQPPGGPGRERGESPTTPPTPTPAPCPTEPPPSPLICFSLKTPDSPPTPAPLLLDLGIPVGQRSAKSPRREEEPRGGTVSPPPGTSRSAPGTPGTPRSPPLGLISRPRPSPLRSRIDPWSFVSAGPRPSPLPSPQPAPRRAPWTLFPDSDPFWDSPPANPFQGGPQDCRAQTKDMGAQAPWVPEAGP

MRCKA = MRCKA (Homo sapiens, UniProt Q5VT25)
MYLK = MYLK (Homo sapiens, UniProt Q15746)
PDGFRA = PDGFRA (Homo sapiens, UniProt P16234)
PIK3CA(C420R) = PIK3CA(C420R) (Homo sapiens, UniProt P42336, C420R)
PLK3 = PLK3 (Homo sapiens, UniProt Q9H4B4)
Sequence of PLK3 (Q9H4B4 whole entry): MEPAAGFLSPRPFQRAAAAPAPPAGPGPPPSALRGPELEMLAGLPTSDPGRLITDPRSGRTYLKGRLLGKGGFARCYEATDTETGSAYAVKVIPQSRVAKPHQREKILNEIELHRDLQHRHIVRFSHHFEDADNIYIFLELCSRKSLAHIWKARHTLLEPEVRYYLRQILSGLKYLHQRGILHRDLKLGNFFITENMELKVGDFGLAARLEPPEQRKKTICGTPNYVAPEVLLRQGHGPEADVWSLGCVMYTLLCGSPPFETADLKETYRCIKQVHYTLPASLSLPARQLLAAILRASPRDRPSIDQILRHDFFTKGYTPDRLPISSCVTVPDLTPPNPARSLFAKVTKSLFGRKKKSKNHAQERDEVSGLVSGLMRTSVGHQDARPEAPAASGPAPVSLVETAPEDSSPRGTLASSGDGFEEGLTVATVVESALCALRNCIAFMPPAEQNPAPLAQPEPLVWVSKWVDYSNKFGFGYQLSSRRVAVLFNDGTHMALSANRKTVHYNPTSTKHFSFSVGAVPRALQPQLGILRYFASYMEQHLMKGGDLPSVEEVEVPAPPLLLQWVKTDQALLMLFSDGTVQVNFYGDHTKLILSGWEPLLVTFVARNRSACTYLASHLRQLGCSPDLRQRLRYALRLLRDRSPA

PRKCE = PRKCE (Homo sapiens, UniProt Q02156)
PRKCH = PRKCH (Homo sapiens, UniProt P24723)
PRKD2 = PRKD2 (Homo sapiens, UniProt Q9BZL6)
RIPK2 = RIPK2 (Homo sapiens, UniProt O43353)
Sequence of RIPK2 (O43353 whole entry): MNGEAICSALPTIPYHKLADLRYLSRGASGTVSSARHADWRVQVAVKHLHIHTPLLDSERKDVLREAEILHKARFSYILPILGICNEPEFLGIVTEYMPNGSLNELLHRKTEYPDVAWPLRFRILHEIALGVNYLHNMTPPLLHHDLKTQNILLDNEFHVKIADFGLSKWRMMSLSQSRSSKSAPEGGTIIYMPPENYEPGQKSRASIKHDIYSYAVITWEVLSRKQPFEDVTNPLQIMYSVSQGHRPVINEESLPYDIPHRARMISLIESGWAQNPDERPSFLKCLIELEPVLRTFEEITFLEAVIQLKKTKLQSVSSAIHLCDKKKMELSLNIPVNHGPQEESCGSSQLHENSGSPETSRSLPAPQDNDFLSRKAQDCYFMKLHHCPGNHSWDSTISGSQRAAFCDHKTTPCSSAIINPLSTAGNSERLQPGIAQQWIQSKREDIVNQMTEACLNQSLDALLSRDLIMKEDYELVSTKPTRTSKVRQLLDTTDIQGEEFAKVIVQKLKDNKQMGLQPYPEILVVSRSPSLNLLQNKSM

TAK1 = TAK1 (Homo sapiens, UniProt O43318)
TESK1 = TESK1 (Homo sapiens, UniProt Q15569)

Sequence of FGR (P09769 whole entry): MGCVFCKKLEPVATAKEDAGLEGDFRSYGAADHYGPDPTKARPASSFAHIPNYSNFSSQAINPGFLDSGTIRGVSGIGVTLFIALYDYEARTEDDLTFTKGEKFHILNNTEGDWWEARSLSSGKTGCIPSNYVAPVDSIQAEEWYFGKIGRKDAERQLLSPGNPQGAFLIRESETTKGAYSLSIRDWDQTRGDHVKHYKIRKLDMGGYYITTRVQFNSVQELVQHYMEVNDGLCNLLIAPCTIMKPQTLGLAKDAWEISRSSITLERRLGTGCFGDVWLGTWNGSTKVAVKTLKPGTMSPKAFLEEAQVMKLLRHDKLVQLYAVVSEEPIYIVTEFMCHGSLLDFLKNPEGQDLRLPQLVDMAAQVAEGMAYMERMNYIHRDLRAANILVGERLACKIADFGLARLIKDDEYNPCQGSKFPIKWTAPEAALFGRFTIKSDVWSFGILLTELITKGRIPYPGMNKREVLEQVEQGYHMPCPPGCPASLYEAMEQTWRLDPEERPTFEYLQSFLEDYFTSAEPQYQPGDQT

CNc1ncc2cc(-c3ccc(-c4cccc(C)n4)cc3Cl)c(=O)n(C[C@H]3OC[C@H](N)CO3)c2n1 [compound 6, G-5555] was tested, and the “Percent Control” value (ACVRL1) was 100%, the “Percent Control” value (CDKL2) was 58% and the “Percent Control” value (CLK3) was 100%. The “Percent Control” value (EGFR(E746-A750del)) was 100%, the “Percent Control” value (EPHA1) was 34% and the “Percent Control” value (ERBB2) was 100%. For the same compound, the “Percent Control” value (FGR) was 100%, the “Percent Control” value (FLT3(D835V)) was 67% and the “Percent Control” value (FLT3-autoinhibited) was 100%. The “Percent Control” value (HIPK4) was 100%, the “Percent Control” value (JNK2) was 75% and the “Percent Control” value (KIT(D816H)) was 100%. For the same compound, the “Percent Control” value (LATS1) was 41%, the “Percent Control” value (LIMK1) was 59% and the “Percent Control” value (MAP3K3) was 23%. The “Percent Control” value (MAST1) was 0.4%, the “Percent Control” value (MKK7) was 77% and the “Percent Control” value (MKNK2) was 97%. The “Percent Control” value (MLK3) was 100%, the “Percent Control” value (MRCKA) was 70% and the “Percent Control” value (MYLK) was 85%. The “Percent Control” value (PDGFRA) was 96%, the “Percent Control” value (PIK3CA(C420R)) was 100% and the “Percent Control” value (PLK3) was 93%. For the same compound, the “Percent Control” value (PRKCE) was 71%, the “Percent Control” value (PRKCH) was 78% and the “Percent Control” value (PRKD2) was 27%. For the same compound, the “Percent Control” value (RIPK2) was 65%, the “Percent Control” value (TAK1) was 92% and the “Percent Control” value (TESK1) was 99%.
